The source of these data is patent US11584744B2 (UNIVERSITY OF WASHINGTON, priority 2017, dated 2023).

“And” between values parts separate entries of the source, which are not always exact repeats. Equal entries are not always repeated. Where two headings read alike, the source gives them in different places. A value given as a limit tells only on which side of the number the result lay.

The target in assay [1] is T1, MetRS (T. brucei) (Trypanosoma brucei brucei, UniProt Q38C91).
T1 sequence (Q38C91 1-773): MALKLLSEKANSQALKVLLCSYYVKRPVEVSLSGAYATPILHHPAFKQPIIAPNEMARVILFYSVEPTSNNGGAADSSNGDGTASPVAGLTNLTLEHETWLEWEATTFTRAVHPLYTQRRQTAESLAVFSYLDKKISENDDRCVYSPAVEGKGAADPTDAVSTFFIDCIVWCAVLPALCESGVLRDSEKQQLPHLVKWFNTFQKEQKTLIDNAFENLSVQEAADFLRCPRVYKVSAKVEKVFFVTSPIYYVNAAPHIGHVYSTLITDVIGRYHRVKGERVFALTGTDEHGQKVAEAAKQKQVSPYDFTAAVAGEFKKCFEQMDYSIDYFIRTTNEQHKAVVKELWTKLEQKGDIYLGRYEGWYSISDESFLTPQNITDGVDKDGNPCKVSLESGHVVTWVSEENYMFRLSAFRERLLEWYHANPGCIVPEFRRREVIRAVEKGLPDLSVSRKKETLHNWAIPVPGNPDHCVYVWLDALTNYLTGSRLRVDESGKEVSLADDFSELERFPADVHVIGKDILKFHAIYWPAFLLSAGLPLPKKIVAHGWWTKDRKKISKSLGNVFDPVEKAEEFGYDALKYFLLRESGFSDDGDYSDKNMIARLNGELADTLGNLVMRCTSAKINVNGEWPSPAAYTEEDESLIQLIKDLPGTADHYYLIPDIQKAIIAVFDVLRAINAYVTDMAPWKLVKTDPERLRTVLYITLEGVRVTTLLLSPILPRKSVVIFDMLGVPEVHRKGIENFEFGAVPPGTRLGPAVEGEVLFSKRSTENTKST
Kind of assay: MetRS (T. brucei) enzyme inhibition. It counts as biochemical.

The target of assay [2] is MetRS (C. parvum) (Cryptosporidium parvum, UniProt Q5CVN0). In words: MetRS (C. parvum) enzyme inhibition. The format is biochemical. As to conditions: read-out: (C) MetRS (C. parvum) IC50.
MetRS (C. parvum), sequence (Q5CVN0 entry or part of it): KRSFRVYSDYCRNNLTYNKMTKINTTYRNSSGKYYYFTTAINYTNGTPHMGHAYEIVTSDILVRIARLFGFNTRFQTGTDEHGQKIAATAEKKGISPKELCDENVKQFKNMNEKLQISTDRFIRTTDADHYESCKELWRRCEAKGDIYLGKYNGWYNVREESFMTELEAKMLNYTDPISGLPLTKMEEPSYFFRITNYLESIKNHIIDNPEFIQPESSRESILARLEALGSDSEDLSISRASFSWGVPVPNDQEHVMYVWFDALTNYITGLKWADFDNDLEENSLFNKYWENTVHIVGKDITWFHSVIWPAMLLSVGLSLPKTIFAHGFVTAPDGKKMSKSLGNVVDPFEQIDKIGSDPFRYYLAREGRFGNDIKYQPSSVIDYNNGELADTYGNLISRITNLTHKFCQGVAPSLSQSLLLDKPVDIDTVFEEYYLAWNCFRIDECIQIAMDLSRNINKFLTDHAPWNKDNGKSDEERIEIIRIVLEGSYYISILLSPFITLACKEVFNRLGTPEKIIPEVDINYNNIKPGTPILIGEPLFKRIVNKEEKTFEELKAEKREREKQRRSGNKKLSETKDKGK
The subject of assay [3] is T. cruzi. In words: T. cruzi growth inhibition. The format is cell-based, Trypanosoma cruzi. Conditions: read-out: (E) T. cruzi EC50.
Assay [4] relates to T. brucei. In words: T. brucei growth inhibition. Conditions: Trypanosoma brucei; read-out: (D) T. brucei EC50. The format is cell-based, Trypanosoma brucei.

For `Fc1ccc2nc(Cn3cc(Cc4ccc(Cl)cc4Cl)[nH]c3=S)[nH]c2n1` [Compound 2056, 5-(2,4-dichlorobenzyl)-3-((5-fluoro-3H-imidazo[4,5-b]pyridin-2-yl)methyl)-1H-imidazole-2(3H)-thione], the IC50 in assay [1] is below 40 nM; in assay [2] it was 195 nM. The EC50 worked out at 3720 nM in assay [3] (Trypanosoma cruzi) and 242 nM in assay [4].
For `CCn1c(Cc2ccc(Cl)cc2Cl)cn(Cc2nc3ccccc3[nH]2)c1=O` [Compound 2068, 1-[(1H-1,3-benzodiazol-2-yl)methyl]-4-[(2,4-dichlorophenyl)methyl]-3-ethyl-2,3-dihydro-1H-imidazol-2-one] the same measures were below 40 nM, below 40 nM, 1000 nM and 40.2 nM.
Consider `CCn1c(Cc2ccc(Cl)cc2Cl)cn(Cc2nc3ccc(F)nc3[nH]2)c1=S` [Compound 2103, 4-[(2,4-dichlorophenyl)methyl]-3-ethyl-1-({5-fluoro-1H-imidazo[4,5-b]pyridin-2-yl}methyl)-2,3-dihydro-1H-imidazole-2-thione], for which the values for the IC50 in assay [1] and in assay [2] were 63 nM and 175 nM, respectively. Moreover, the EC50 came to 2930 nM in assay [3] (Trypanosoma cruzi) and 113 nM in assay [4].
For `CSc1nc(Cc2ccc(Cl)cc2Cl)cn1Cc1nc2ccc(F)nc2[nH]1` [Compound 2104, 4-[(2,4-dichlorophenyl)methyl]-1-({5-fluoro-1H-imidazo[4,5-b]pyridin-2-yl}methyl)-2-(methylsulfanyl)-1H-imidazole] the same measures were below 40 nM, 40.3 nM, 1480 nM and 73.4 nM.
With `CSc1nc(Cc2ccc(Cl)cc2Cl)cn1Cc1nc2nc(Cl)ccc2[nH]1` [Compound 2109, 1-({5-chloro-1H-imidazo[4,5-b]pyridin-2-yl}methyl)-4-[(2,4-dichlorophenyl)methyl]-2-(methylsulfanyl)-1H-imidazole], the IC50 in assay [1] and in assay [2] was below 40 nM in each case. For the same compound, the EC50 stood at 329 nM in assay [3] (Trypanosoma cruzi) and 53.5 nM in assay [4].
On to `COc1ccc(-c2cccn3c(S(C)(=O)=O)c(Cc4nc5nc(Cl)ccc5[nH]4)nc23)c(Cl)c1` [Compound 2151, 2-({5-chloro-1H-imidazo[4,5-b]pyridin-2-yl}methyl)-8-(2-chloro-4-methoxyphenyl)-3-methanesulfonylimidazo[1,2-a]pyridine], for which the IC50 in assay [1] is below 40 nM; in assay [2] it was 614 nM. In addition, in assay [4], the EC50 turned out to be 364 nM.
For `Clc1ccc(Cc2cn(Cc3nc4nc(Cl)ccc4[nH]3)c(SCc3ccccn3)n2)c(Cl)c1` [Compound 2157, 2-({[1-({5-chloro-1H-imidazo[4,5-b]pyridin-2-yl}methyl)-4-[(2,4-dichlorophenyl)methyl]-1H-imidazol-2-yl]sulfanyl}methyl)pyridine] the same measures were below 40 nM, 107 nM and above 200 nM.
In the case of `COc1ccc(-c2cccc3c2CN(Cc2nc4nc(Cl)ccc4[nH]2)CC3)c(Cl)c1` [Compound 2161, 2-({5-chloro-1H-imidazo[4,5-b]pyridin-2-yl}methyl)-8-(2-chloro-4-methoxyphenyl)-1,2,3,4-tetrahydroisoquinoline], the IC50 in assay [1] is below 40 nM; in assay [2], 252 nM. Besides, the EC50 in assay [4] was 1050 nM.
For `COc1ccc(-c2cccc3nc(Cc4nc5nc(Cl)ccc5[nH]4)oc23)c(Cl)c1` [Compound 2162, 2-({5-chloro-1H-imidazo[4,5-b]pyridin-2-yl}methyl)-7-(2-chloro-4-methoxyphenyl)-1,3-benzoxazole], the figures for the IC50 in assay [1] and in assay [2] were below 40 nM and 90.4 nM, respectively. Moreover, the EC50 in assay [4] is 175 nM.
With `CCOc1ccc(-c2cccc3nc(Cc4nc5nc(Cl)ccc5[nH]4)cn23)c(Cl)c1` [Compound 2164, 2-({5-chloro-1H-imidazo[4,5-b]pyridin-2-yl}methyl)-5-(2-chloro-4-ethoxyphenyl)imidazo[1,2-a]pyridine], the values for the IC50 in assay [1] and in assay [2] were 143 nM and above 1000 nM, respectively. In assay [4], the EC50 came out at 1910 nM.
In the case of `Cc1ccc(-c2cccc3nc(Cc4nc5nc(Cl)ccc5[nH]4)cn23)c(Cl)c1` [Compound 2165, 2-({5-chloro-1H-imidazo[4,5-b]pyridin-2-yl}methyl)-5-(2-chloro-4-methylphenyl)imidazo[1,2-a]pyridine], the IC50 in assay [1] is below 40 nM; in assay [2] it was 326 nM. For the same compound, the EC50 in assay [4] is above 200 nM.
Take `COc1ccc(-c2cccc3c2CN(Cc2nc4nc(F)ccc4[nH]2)CC3)c(Cl)c1` [Compound 2167, 8-(2-chloro-4-methoxyphenyl)-2-((5-fluoro-1H-imidazo[4,5-b]pyridin-2-yl)methyl)-1,2,3,4-tetrahydroisoquinoline]: the values for the IC50 in assay [1] and in assay [2] were 203 nM and 505 nM, respectively. Moreover, in assay [4], the EC50 was above 2000 nM.
In the case of `COc1ccc(-c2cnc3ccc(NCc4nc5nc(F)ccc5[nH]4)cn23)c(Cl)c1` [Compound 2173, 3-(2-chloro-4-methoxyphenyl)—N-((5-fluoro-1H-imidazo[4,5-b]pyridin-2-yl)methyl)imidazo[1,2-a]pyridin-6-amine], the results for the IC50 in assay [1] and in assay [2] were 57 nM and 185 nM, respectively. For the same compound, in assay [4], the concentration giving a half-maximal response (EC50) is above 2000 nM.
As to `COc1ccc(-c2cnc(N)c3nc(Cc4nc5nc(Cl)ccc5[nH]4)cn23)c(Cl)c1` [Compound 2175, 2-({5-chloro-1H-imidazo[4,5-b]pyridin-2-yl}methyl)-5-(2-chloro-4-methoxyphenyl)imidazo[1,2-a]pyrazin-8-amine], the IC50 in assay [1] is 72 nM and < 40 nM; in assay [2] it was 41.7 nM. Further, the figures for the EC50 in assay [3] (Trypanosoma cruzi) and in assay [3] were 681 nM and 638 nM, respectively.
Consider `COc1ccc(-n2ccc(=O)c3cc(F)c(Cc4nc5nc(Cl)ccc5[nH]4)cc32)c(Cl)c1` [Compound 2178, 7-((5-chloro-1H-imidazo[4,5-b]pyridin-2-yl)methyl)-1-(2-chloro-4-methoxyphenyl)-6-fluoroquinolin-4(1H)-one], for which the 50% inhibitory concentration (IC50) in assay [1] was determined as 116 nM; in assay [2], 881 nM. Also, in assay [4], the EC50 is 5660 nM.
The matching figures for `COc1ccc(-c2ccc(N)c3nc(Cc4nc5cc(Cl)ccc5[nH]4)cn23)c(Cl)c1` [Compound 2179, 2-[(6-chloro-1H-1,3-benzodiazol-2-yl)methyl]-5-(2-chloro-4-methoxyphenyl)imidazo[1,2-a]pyridin-8-amine]: below 40 nM, 76 nM and 183 nM.
For the compound `COc1ccc(-c2nn(C)c3c2CN(Cc2nc4nc(Cl)ccc4[nH]2)CC3)c(Cl)c1` [Compound 2187, 5-((5-chloro-1H-imidazo[4,5-b]pyridin-2-yl)methyl)-3-(2-chloro-4-methoxyphenyl)-1-methyl-4,5,6,7-tetrahydro-1H-pyrazolo[4,3-c]pyridine], the concentration for half-maximal inhibition (IC50) was 117 nM in assay [1] and 113 nM in assay [2]. The EC50 in assay [4] was above 2000 nM.
As for `COc1ccc(-c2c3c(nn2C)CCN(Cc2nc4nc(Cl)ccc4[nH]2)C3)c(Cl)c1` [Compound 2188, 5-((5-chloro-1H-imidazo[4,5-b]pyridin-2-yl)methyl)-3-(2-chloro-4-methoxyphenyl)-2-methyl-4,5,6,7-tetrahydr0-2H-pyrazolo[4,3-c]pyridine], the figures for the IC50 in assay [1] and in assay [2] were below 40 nM and 443 nM, respectively. The EC50 in assay [4] came out at 808 nM.
Turning to `Clc1ccc(Cn2cnc(Cc3nc4nc(Cl)ccc4[nH]3)c2)c(Cl)c1` [Compound 2190, 4-({5-chloro-1H-imidazo[4,5-b]pyridin-2-yl}methyl)-1-[(2,4-dichlorophenyl)methyl]-1H-imidazole], the IC50 in assay [1] is below 40 nM; in assay [2], 91.7 nM. Moreover, in assay [4], the EC50 amounted to 174 nM.
As for `CC(=O)Nc1nc(Cc2ccc(Cl)cc2Cl)cn1Cc1nc2ccc(Cl)cc2[nH]1` [Compound 2193, N-{1-[(6-chloro-1H-1,3-benzodiazol-2-yl)methyl]-4-[(2,4-dichlorophenyl)methyl]-1H-imidazol-2-yl}acetamide], the IC50 in assay [1] is below 40 nM; in assay [2], 232 nM. Moreover, the half-maximal effective concentration (EC50) in assay [4] was 257 nM.
The matching figures for `Clc1ccc(Cc2cn(Cc3nc4ccc(Cl)cc4[nH]3)c(Br)n2)c(Cl)c1` [Compound 2194, 2-({2-bromo-4-[(2,4-dichlorophenyl)methyl]-1H-imidazol-1-yl}methyl)-6-chloro-1H-1,3-benzodiazole]: above 10000 nM, above 1000 nM and above 2000 nM.
The matching figures for `OCCNc1nc(Cc2ccc(Cl)cc2Cl)cn1Cc1nc2ccc(Cl)cc2[nH]1` [Compound 2196, 2-({1-[(6-chloro-1H-1,3-benzodiazol-2-yl)methyl]-4-[(2,4-dichlorophenyl)methyl]-1H-imidazol-2-yl}amino)ethan-1-ol]: 1280 nM, above 1000 nM and above 2000 nM.

Broadly, the IC50 is the concentration that inhibits the measured activity by half. A word on the EC50: it is the concentration needed to bring the measured effect to its halfway point.
